# Measured values published in US7867750B2, “Method for anaerobic degradation of fuel oxygenates and similar compounds” (Rutgers, The State University of New Jersey, priority 2006, dated 2011).
# Entries after “also recorded” stand apart in the source; their conditions may differ.
# How the values were obtained:
# [1] = MTBE loss in abiotic controls (methanogenic and sulfate-reducing media); assay type: physicochemical
# Procedure: To examine the carbon isotope fractionation during anaerobic MTBE degradation, eight batch experiments are set up. Four serum bottles, each containing 100 ml of sulfate-reducing AK enrichment, are prepared as described above. Sodium molybdate (20 mM), a specific inhibitor of sulfate reduction, is added to two sulfate-reducing AK cultures. The two remaining cultures are kept under conditions promoting sulfate reduction. From the CC enrichment, two of the 100-ml cultures are prepared for each methanogenic and sulfate-reducing enrichment. Each culture had been enriched individually from separate CC sediment microcosms and had never been combined. Methanogenic and sulfate-reducing media are used as abiotic controls. Anaerobic MTBE stock solution is added to all live enrichments and abiotic controls to a final concentration of 25 to 30 mg liter^−1. […] The headspace MTBE concentrations of the cultures are monitored over time. […]
# The concentration of MTBE is determined by a static headspace method. A 100-μl headspace sample is analyzed for MTBE with a Hewlett-Packard 5890 gas chromatograph (GC) equipped with a DB1 column (0.53 mm by 30 m; J&W Scientific, Folsom, Calif.) and a flame ionization detector with He as the carrier gas. […] For quantification, external aqueous standards of 3.0, 9.0, 15.0, and 30.0 mg liter^−1 for each compound are used. […]
# MTBE-utilizing culture [2] = assay: Effect of methoxylated aromatic compounds as co-substrates on MTBE utilization; assay type: cell-based; conditions: for lag period of MTBE utilization: 80 μM co-substrate added with MTBE; for effect on MTBE utilization/degradation rate: 80 μM co-substrate, first spiking; for effect on MTBE degradation rate: repeated spiking with MTBE + O-methyl aryl ether
# [3] = test system: sulfate-reducing Arthur Kill enrichment; assay: Anaerobic MTBE biodegradation and carbon isotope fractionation, batch experiment; assay type: cell-based; conditions: 20 mM sodium molybdate, inhibitor of sulfate reduction
# [4] = test system: Coronado Cays sediment microcosms (methanogenic and sulfate-reducing); assay: Development of MTBE-degrading enrichments from Coronado Cays sediment microcosms; assay type: cell-based; conditions: sediment with 5 mM lactate, sodium molybdate present
# MTBE-utilizing culture [5] = assay: MTBE utilization in the presence of various concentrations of syringate; assay type: cell-based
structure (smiles),measurement,setting,value
"COC(C)(C)C [MTBE, Methyl tert-butyl ether]",MTBE loss in abiotic controls,"[1]; both CC experiments, over 60 days",< 10%
same,MTBE lost in abiotic controls,[1]; end of the Arthur Kill experiment,13%
COc1ccccc1O [guaiacol],lag period of MTBE utilization,MTBE-utilizing culture [2],comparable to the culture receiving MTBE alone
same,effect on MTBE utilization/degradation rate,MTBE-utilizing culture [2],adverse effect on MTBE degradation; also recorded: more severe than that of vanillate; also recorded: decrease
same,effect on MTBE degradation rate,MTBE-utilizing culture [2],increased rate of degradation
"[Na+].[Na+].[O]=[Mo](=[O])([O-])[O-] [molybdate, sodium molybdate]",effect on MTBE utilization rate,[3],decreases drastically
same,effect on sulfate reduction,[4],No significant loss of sulfate
"COc1cc(C(=O)O)cc(OC)c1O [syringate, syringic acid]",lag period of MTBE utilization,MTBE-utilizing culture [2],55 days
same,effect on MTBE utilization/degradation rate,MTBE-utilizing culture [2],enhances the MTBE utilization rate
same,effect on MTBE utilization/degradation rate,MTBE-utilizing culture [2]; listed as syringic acid,increased the degradation rate
same,effect on MTBE degradation rate,MTBE-utilizing culture [2],increased rate of degradation
same,effect on MTBE utilization,MTBE-utilizing culture [5]; 50 μM syringate,enhances MTBE utilization
same,time in which MTBE is utilized,MTBE-utilizing culture [5]; 50 μM syringate as co-substrate,less than 80 days
same,effect on MTBE utilization,MTBE-utilizing culture [5]; 100 μM syringate,enhances MTBE utilization
same,effect on MTBE utilization,MTBE-utilizing culture [5]; 500 μM syringate,slightly increases MTBE-degrading activity
same,effect on MTBE utilization,MTBE-utilizing culture [5]; 750 μM syringate,slight inhibitory effect on MTBE utilization
same,effect on MTBE utilization,MTBE-utilizing culture [5]; 1000 μM syringate,limited MTBE utilization
"COc1cc(C(=O)O)ccc1O [vanillate, vanillic acid]",lag period of MTBE utilization,MTBE-utilizing culture [2],comparable to the culture receiving MTBE alone
same,effect on MTBE utilization/degradation rate,MTBE-utilizing culture [2],adverse effect on MTBE degradation; also recorded: decrease
same,effect on MTBE degradation rate,MTBE-utilizing culture [2],increased rate of degradation
